Read-outs that look alike come from different tables or passages of the source.
What was measured:
[1] = Solvolysis of the BF3 moiety in phosphate buffer; assay type: physicochemical; conditions: for t1/2/min: half-life in phosphate buffer at pH 7.4; for pKB-F: pK of the first fluorine of the BF3− moiety; for k (solv)/min^−1: rate of solvolysis, phosphate buffer pH 7.4
Text: See also, Liu et al., Chem. Eur. J., 2015, 21:3924-8, incorporated herein by reference in its entirety.

[2] = COOH group of the corresponding amino acid; cited from earlier work
U87MG cells = assay: In vitro competitive inhibition of boramino acid uptake by natural amino acids and transporter inhibitors; design: inhibition: dose or concentration left out as unconfirmed; conditions: for inhibition of uptake by sodium free medium: U87MG cells; for inhibition / inhibition at 25000 µM: Homo sapiens, U-87 MG, 1 h; for inhibition: read-out: inhibition of uptake of 18F-Leu-BF3
Method: The U87MG cells were in Dulbecco modified Eagle medium and Minimum Essential Medium under a humidified atmosphere with 5% CO2 at 37° C. The culture media was supplemented with 10% fetal bovine serum, 100 U/mL penicillin, and 100 μg/mL streptomycin. […] Prior to incubation, the cells were washed with phosphate-buffered saline (PBS). […] The cells were then washed 3 times with ice-cold PBS, quenched with 0.1 M of NaOH and the cell-bound radioactivity was counted using a gamma counter. Uptake is defined as percentage of added radioactive dose (% AD).
The control is incubation with BAA only without competitor.

UM22B cells = assay: Competitive inhibition assay of 18F-Leu-BF3 uptake; assay type: cell-based; conditions: 60 min incubation
Method: To study the specificity of BAA transportation, a competitive inhibition assay was performed using UM22B cells in the presence of natural amino acid and transporter inhibitor.

amino acid transporters [3] = conditions: natural amino acid, comparison value; read-out: KM/μM, AA; cited from earlier work
amino acid transporters [4] = assay: Uptake-concentration kinetics, Michaelis-Menten fitting, in U87MG cells; assay type: cell-based, human; conditions: 60 min at 37° C. in PBS, read-out: KM/μM, ^18F-AA-BF3 (BAA)
Method: The uptake of BAA in U87MG cells was measured at increasing concentrations in phosphate-buffered saline (PBS) and plotted against the concentration of BAA. […] The KM values of ^18F-BAAs were calculated by Michaelis-Menten fitting using Igor Pro 6.22.
The uptake-concentration correlations (FIGS. 12-15) fit well with Michaelis-Menten kinetics, giving the values of Table 4.

system P transporters = conditions: read-out: KM value, cited from earlier work
[5] = read-out: inhibition of uptake of 18F-Pro-BF3
[6] = read-out: inhibition of uptake of 18F-Ala-BF3
[7] = read-out: inhibition of uptake of 18F-Phe-BF3

In the case of `CSCC[C@H]([NH3+])[B-](F)(F)F` [Met-BF3], the t1/2/min [1] is reported as 116.4 h, the pKB-F [1] is reported as 4.0041 and the “k (solv)/min^−1” value [1] is reported as 9.906e-05 min⁻¹. For the same compound, the “pka of corres. COOH” value [2] was 2.13.
In the case of `C[C@H]([NH3+])[B-](F)(F)[18F]` [^18F-Ala-BF3], the “inhibition of uptake by sodium free medium” value (U87MG cells; 18F-Ala-BF3, 60 min incubation) is reported as 91.1%.
In the case of `CC(C)C[C@H](N)C(=O)O` [L-leucine], the “inhibition of cell uptake of 18F-Leu-BF3” value (UM22B cells) is listed as 94.7%, the Km (amino acid transporters [3]) is listed as 19.7 ± 2.4 µM and the inhibition (U87MG cells) is listed as about 98%.
In the case of `[NH3+][C@@H](Cc1ccccc1)[B-](F)(F)F` [^18F-Phe-BF3], the Km (amino acid transporters [4]) is reported as 17.6 ± 4.2 µM.
In the case of `O=C(O)[C@@H]1CCCN1` [proline], the Km (system P transporters; system P transporter with high KM) is listed as about 5000 µM, the Km (system P transporters; system P transporter with low KM) is listed as about 100 µM and the Km (amino acid transporters [3]) is listed as 67 ± 11.5 µM. It also gave an inhibition at 25000 µM (U87MG cells; [5]) of about 80%.
In the case of `[NH3+]C(Cc1ccccc1)[B-](F)(F)F` (stereo not shown) [Phe-BF3], the t1/2/min [1] is reported as 92.45 h, the pKB-F [1] is reported as 3.904 and the “k (solv)/min^−1” value [1] is reported as 0.0001247 min⁻¹. The “pka of corres. COOH” value [2] was 2.2.
In the case of `C[C@H](N)C(=O)O` [L-Alanine], the Km (amino acid transporters [3]) is listed as 370 µM, the inhibition at 25000 µM (U87MG cells; [6]) is listed as about 90% and the inhibition (U87MG cells) is listed as 38.9%. It also gave an inhibition at 25000 µM (U87MG cells; [7]) of 60.3%.
`F[B-](F)(F)[C@@H]1CCC[NH2+]1` [^18F-Pro-BF3] gave a Km (amino acid transporters [4]) of 65.6 ± 45.2 µM.
Work on `N=C(N)NCCC[C@H](N)C(=O)O` [L-Arginine] yielded an inhibition at 25000 µM (U87MG cells; [6]) of 58.2%, an inhibition (U87MG cells) of 23% and an inhibition at 25000 µM (U87MG cells; [7]) of 42.6%. The inhibition at 25000 µM (U87MG cells; [5]) was 15.6%.
For `F[B-](F)([18F])[C@@H]1CCC[NH2+]1` [^18F-Pro-BF3], the “inhibition of uptake by sodium free medium” value (U87MG cells; 18F-Pro-BF3, 60 min incubation) was 76.2%.
`CNC(C)(C)C(=O)O` [MeAIB, 2-methylaminoisobutyric acid] showed an inhibition at 25000 µM (U87MG cells; [6]) of 39.3%, an inhibition (U87MG cells) of 24.5% and an inhibition at 25000 µM (U87MG cells; [7]) of 17.6%. It also gave an inhibition at 25000 µM (U87MG cells; [5]) of 39.3%.

Reference: patent publication US20190055267A1, “ORGANOTRIFLUOROBORATE MIMICS OF AMINO ACIDS AND USES THEREOF” (The United States of America, as represented by the …, priority 2015, published 2019)
